Test results as given in publication PMC7486280 (Journal of medicinal chemistry, 2020).
Where a SMILES comes first, the peptide text is derived from it. [ ]: non-standard residue; d: D form. The star is where a group is joined. ξ: configuration not given here. ξαMeP = CC1(C(=O)O)CCCN1; PhAc = O=C(Cc1ccccc1)*

How the values were obtained:
NTMT1 [1] = biological target: T1, NTMT1 (Homo sapiens, UniProt Q9BV86); assay: SAH hydrolase; assay type: biochemical; details: for fold loss in inhibition compared to 6 (BM30): IC50 ratio vs BM30; for inhibitory activity for NTMT1 (in words): up to 100 μM
T1 sequence (Q9BV86 1-223): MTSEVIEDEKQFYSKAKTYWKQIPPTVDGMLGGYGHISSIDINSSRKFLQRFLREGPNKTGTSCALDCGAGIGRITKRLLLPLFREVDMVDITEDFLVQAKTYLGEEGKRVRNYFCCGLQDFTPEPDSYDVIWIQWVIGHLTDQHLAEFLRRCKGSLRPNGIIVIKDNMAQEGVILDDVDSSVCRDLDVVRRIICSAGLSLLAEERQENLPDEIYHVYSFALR

PRMT1 = PRMT1 (Homo sapiens, UniProt Q99873); assay: SAH hydrolase-coupled fluorescence selectivity assay, PRMT1; assay type: biochemical
Sequence of PRMT1 (Q99873 whole entry, species assumed): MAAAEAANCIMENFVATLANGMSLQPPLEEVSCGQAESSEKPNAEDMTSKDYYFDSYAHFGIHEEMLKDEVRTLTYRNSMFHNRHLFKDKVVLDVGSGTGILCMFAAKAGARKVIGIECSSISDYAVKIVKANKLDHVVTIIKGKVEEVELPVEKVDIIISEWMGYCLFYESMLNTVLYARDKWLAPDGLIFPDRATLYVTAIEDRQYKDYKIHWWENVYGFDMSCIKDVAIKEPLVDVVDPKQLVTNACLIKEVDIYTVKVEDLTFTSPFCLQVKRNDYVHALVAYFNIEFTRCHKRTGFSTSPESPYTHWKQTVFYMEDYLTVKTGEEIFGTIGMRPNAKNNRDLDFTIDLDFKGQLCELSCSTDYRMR

[2] = tested on: panel of 41 MTases (NTMT1/2, PKMTs, PRMTs, DNMTs); assay: Selectivity panel of 41 MTases; assay type: biochemical
NTMT1 [3] = biological target: T1, NTMT1; assay: Inhibition mechanism, SAHH-coupled fluorescence assay; assay type: biochemical
HCT116 cells = assay: Cell permeability evaluation by MALDI-MS; assay type: cell-based; details: 100 μM, listed as BM30
G9a = biological target: T2, G9a (Homo sapiens, UniProt Q96KQ7); assay: SAH hydrolase-coupled fluorescence selectivity assay, G9a; assay type: biochemical
T2 sequence (Q96KQ7 1-1210): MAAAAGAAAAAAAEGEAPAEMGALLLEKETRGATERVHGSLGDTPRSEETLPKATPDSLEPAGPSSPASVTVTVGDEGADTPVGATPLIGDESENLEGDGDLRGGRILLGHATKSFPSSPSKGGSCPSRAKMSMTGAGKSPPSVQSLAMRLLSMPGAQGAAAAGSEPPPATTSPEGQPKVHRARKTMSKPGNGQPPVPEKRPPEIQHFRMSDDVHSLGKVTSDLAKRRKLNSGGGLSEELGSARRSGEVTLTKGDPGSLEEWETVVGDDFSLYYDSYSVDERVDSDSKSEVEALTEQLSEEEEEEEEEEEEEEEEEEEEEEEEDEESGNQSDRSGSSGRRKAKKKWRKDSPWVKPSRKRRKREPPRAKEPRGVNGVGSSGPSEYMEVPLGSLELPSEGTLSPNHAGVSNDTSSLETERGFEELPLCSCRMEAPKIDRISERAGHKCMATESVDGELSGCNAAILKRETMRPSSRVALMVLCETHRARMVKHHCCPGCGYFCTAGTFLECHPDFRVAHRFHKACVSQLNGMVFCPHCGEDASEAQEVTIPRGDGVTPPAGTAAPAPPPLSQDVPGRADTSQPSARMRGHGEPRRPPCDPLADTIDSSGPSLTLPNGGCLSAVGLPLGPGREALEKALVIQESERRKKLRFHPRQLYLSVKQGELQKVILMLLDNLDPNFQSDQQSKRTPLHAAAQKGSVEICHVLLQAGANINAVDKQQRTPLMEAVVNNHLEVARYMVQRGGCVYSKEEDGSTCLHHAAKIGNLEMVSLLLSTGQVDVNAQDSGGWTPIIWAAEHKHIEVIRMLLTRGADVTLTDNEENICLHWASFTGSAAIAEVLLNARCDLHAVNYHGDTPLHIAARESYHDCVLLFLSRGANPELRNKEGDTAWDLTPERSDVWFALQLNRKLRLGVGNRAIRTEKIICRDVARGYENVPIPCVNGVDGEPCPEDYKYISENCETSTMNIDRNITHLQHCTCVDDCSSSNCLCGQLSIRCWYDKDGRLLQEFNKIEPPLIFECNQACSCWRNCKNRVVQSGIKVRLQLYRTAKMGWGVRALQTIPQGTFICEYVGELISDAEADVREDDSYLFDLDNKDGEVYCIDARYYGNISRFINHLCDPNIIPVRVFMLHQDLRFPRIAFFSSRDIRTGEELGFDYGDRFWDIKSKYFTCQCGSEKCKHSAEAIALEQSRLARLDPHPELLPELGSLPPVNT

NTMT1 [4] = biological target: T1, NTMT1; details: read-out: Kd for NTMT1; peptide substrate; cited from earlier work

N=C(N)NCCC[C@H](NC(=O)[C@H](CCCCN)NC(=O)[C@@H]1CCCN1C(=O)Cc1ccc(O)cc1)C(N)=O [Compound 6]
fold increased activity compared to 5 (NTMT1 [1]; IC50 ratio vs compound 5): approximately 7 fold | IC50 (PRMT1): > 100 µM | inhibition of NTMT1 versus NTMT2 in the panel ([2]; 100 μM): comparable inhibition against both NTMT1 and NTMT2 | inhibition against the remaining 39 MTases ([2]; 100 μM, duplicates): very marginal inhibition | selectivity for NTMT1/2 over other MTases of the panel ([2]; compared to PKMTs, PRMTs and DNMTs): over 100 fold | inhibition pattern with respect to peptide substrate RCC1-6 (SPKRIA) (NTMT1 [3]; varying RCC1-6, fixed SAM): competitive | inhibition pattern with respect to cofactor SAM (NTMT1 [3]; varying SAM, fixed RCC1-6): noncompetitive | cellular level / penetration by MS detection (HCT116 cells): did not display any

N=C(N)NCCC[C@H](NC(=O)[C@H](CCCCN)NC(=O)[C@@H]1CCCN1C(=O)CCc1ccc(O)cc1)C(N)=O [Compound 10]
fold loss in inhibition compared to 6 (BM30) (NTMT1 [1]): 5 fold

N=C(N)NCCC[C@H](NC(=O)[C@H](CCCCN)NC(=O)[C@@H]1CCCN1C(=O)CCc1ccc(N)cc1)C(N)=O [Compound 11]
fold loss in inhibition compared to parent compound 7 (NTMT1 [1]; IC50 ratio vs compound 7): 3 fold

N=C(N)NCCC[C@H](NC(=O)[C@H](CCCCN)NC(=O)[C@@H]1CCCN1CCc1ccc(O)cc1)C(N)=O [Compound 12]
inhibitory activity for NTMT1 (in words) (NTMT1 [1]): did not show any inhibitory activity

CC1(C(=O)N[C@@H](CCCCN)C(=O)N[C@@H](CCCNC(=N)N)C(N)=O)CCCN1C(=O)Cc1ccccc1 (stereo partly drawn) [Compound 13] (PhAc-[ξαMeP]-Lys-Arg-NH2)
inhibitory activity for NTMT1 (in words) (NTMT1 [1]): completely lost the inhibitory activity

N=C(N)NCCC[C@H](NC(=O)[C@H](CCCCN)NC(=O)c1cccc(NC(=O)Cc2ccc(O)cc2)c1)C(N)=O [Compound 14]
inhibitory activity for NTMT1 (in words) (NTMT1 [1]): did not exhibit any inhibitory activity

N=C(N)NCCC[C@H](NC(=O)[C@H](CCCCN)NC(=O)c1ccccc1NC(=O)Cc1ccc(O)cc1)C(N)=O [Compound 15]
inhibitory activity for NTMT1 (in words) (NTMT1 [1]): did not exhibit any inhibitory activity

NCCCC[C@H](NC(=O)[C@H](CCCCN)NC(=O)[C@@H]1CCCN1C(=O)Cc1ccc(O)cc1)C(N)=O [Compound 17]
inhibitory activity for NTMT1 (in words) (NTMT1 [1]): negligible difference in inhibition compared to BM30

C[C@@H](O)[C@H](NC(=O)[C@H](CCCCN)NC(=O)[C@@H]1CCCN1C(=O)Cc1ccc(O)cc1)C(N)=O [Compound 18]
fold loss in inhibition compared to 6 (BM30) (NTMT1 [1]): 5 fold

C[C@H](NC(=O)[C@H](CCCCN)NC(=O)[C@@H]1CCCN1C(=O)Cc1ccc(O)cc1)C(N)=O [Compound 19]
fold loss in inhibition compared to 6 (BM30) (NTMT1 [1]): 5 fold

NCCCC[C@H](NC(=O)[C@@H]1CCCN1C(=O)Cc1ccc(O)cc1)C(=O)NCC(N)=O [Compound 20]
fold loss in inhibition compared to 6 (BM30) (NTMT1 [1]): ~14 fold

NCCCC[C@H](NC(=O)[C@@H]1CCCN1C(=O)Cc1ccc(O)cc1)C(N)=O [Compound 21]
fold loss in inhibition compared to 6 (BM30) (NTMT1 [1]): 18 fold

N=C(N)NCCC[C@@H](NC(=O)[C@H](CCCCN)NC(=O)[C@@H]1CCCN1C(=O)Cc1ccc(O)cc1)C(N)=O [Compound 22]
inhibition for G9a (in words) (G9a): exhibited inhibition

YPKRIA
Kd (NTMT1 [4]): 0.1 µM
